Results on three compounds are retold here after ChEMBL document CHEMBL3508693 (2016).

In series [1] the target is CYP2D6 (Homo sapiens, UniProt P10635). The series is described as follows: Inhibitory activity of 200 µM SPP100 on cDNA-derived CYP2D6 enzyme in microsome prepared from human lymphoblastoid cell line. Particulars: probe bufuralol (10 uM). Type of series: ADME, microsomes. Set-up: conc 200 µM, interact cpd conc 10 uM.
Series [2] has as its target CYP3A4 (Homo sapiens, UniProt P08684). Put plainly: Inhibitory activity of 200 µM SPP100 on cDNA-derived CYP3A4 enzyme in microsome prepared from human lymphoblastoid cell line. Details: conc 200 uM, interact cpd conc 120 uM. Particulars: probe testosterone (120 uM). Type of series: ADME, microsomes.
The nature of series [3]: % of radioactivity recovered as aliskiren in plasma following intravenous administration of [14C] aliskiren hemifumarate at 10 mg.Kg-1 level in rat. Particulars: in vivo. It is filed as ADME, organism-based, Albino HAN:WIST.
Series [4] in a line: Excretion (0-168h) of radioactivity in faeces following oral administration of [14C] aliskiren hemifumarate at 3 mg.Kg-1 level in marmoset. Type of series: ADME, organism-based, Callithrix jacchus, Feces. Particulars: in vivo.
Series [5] concerns the target Cytochrome P450 3A4/3A5 (Homo sapiens, UniProt P08684+P20815). Put plainly: Estimated contribution of CYP3A4/5 to oxidative metabolism of [14C] aliskiren hemifumarate based on studies with microsomes from baculovirus-infected insect cells expressing recombinant human CYP450s and studies with pooled human liver microsomes from 22 donors. Type of series: ADME, Microsome.

In series [6] the target is T1, Cytochrome P450 4A11 (Homo sapiens, UniProt Q02928).
T1 sequence (Q02928 whole entry): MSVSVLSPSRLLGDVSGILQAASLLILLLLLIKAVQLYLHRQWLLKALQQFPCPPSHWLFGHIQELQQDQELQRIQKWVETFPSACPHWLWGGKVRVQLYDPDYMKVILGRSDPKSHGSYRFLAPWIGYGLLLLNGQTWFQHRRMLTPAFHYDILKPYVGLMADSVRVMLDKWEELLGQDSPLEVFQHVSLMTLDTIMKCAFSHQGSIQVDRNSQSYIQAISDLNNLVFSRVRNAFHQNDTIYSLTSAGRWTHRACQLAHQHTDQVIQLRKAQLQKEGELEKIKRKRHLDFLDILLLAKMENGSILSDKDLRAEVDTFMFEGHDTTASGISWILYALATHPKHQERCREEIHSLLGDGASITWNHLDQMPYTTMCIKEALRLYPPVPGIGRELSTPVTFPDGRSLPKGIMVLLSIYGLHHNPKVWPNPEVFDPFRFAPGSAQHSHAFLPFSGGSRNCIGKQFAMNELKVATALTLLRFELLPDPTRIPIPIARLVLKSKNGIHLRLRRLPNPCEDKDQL
Put plainly: Metabolic clearance (ul.min.nmol-1 CYP) of aliskiren hemifumarate for CYP4A11 was determined in human liver microsome incubated with [14C]SPP100 hemifumarate. Particulars: microsomes. Type of series: ADME.

Series [7] is described as follows: Mean excretion of radioactivity (24-48h) in urine and faeces following single intravenous dose of 10 mg.Kg-1 [14C] aliskiren hemifumarate in rat. Type of series: ADME, organism-based, Albino HAN:WIST, Urine/Feces. The settings on record: in vivo.
Series [8] in a line: Excretion of radioactivity (48-72h) in urine following single oral dose of 100 mg.Kg-1 [14C] aliskiren hemifumarate in rat. The settings on record: in vivo. Type of series: ADME, organism-based, Albino HAN:WIST.
Series [9] in a line: Excretion of radioactivity (48-72h) in faeces following single oral dose of 100 mg.Kg-1 [14C] aliskiren hemifumarate in rat. Type of series: ADME, organism-based, Albino HAN:WIST, Feces. Particulars: in vivo.
A short description of series [10]: Concentration of radioactivity in the brown fat following repeated oral administration of [14C] aliskiren hemifumarate at 100 mg.Kg-1 level studied at 2h after 7th dose in rat. It is filed as ADME, organism-based, Albino HAN:WIST, Brown adipose tissue. The settings on record: in vivo.
The nature of series [11]: Tmax (0-168h) of total radioactivity following single intravenous administration of [14C] aliskiren hemifumarate at 1 mg.Kg-1 level in marmoset. Particulars: in vivo. Type of series: ADME, organism-based, Callithrix jacchus, Plasma.
Series [12] in a line: AUC (0-96 or 0-168h) of total radioactivity following single oral administration of [14C] aliskiren hemifumarate at 3 mg.Kg-1 level in marmoset. Type of series: ADME, organism-based, Callithrix jacchus, Plasma. Particulars: in vivo.
The target in series [13] is Cytochrome P450 3A4 (Homo sapiens, UniProt P08684). The series is described as follows: Activity of human recombinant CYP3A4 assessed as enzyme contribution (% total relative CL) towards [14C]SPP100 hemifumarate metabolism in human liver microsome. The settings on record: microsomes. It is filed as ADME.
The nature of series [14]: Tmax of aliskiren hemifumarate following 8 day once-daily dosing of SPP100B oral solution at 40 mg level studied on day 8 in men. It is filed as ADME, organism-based. Particulars: male, human, plasma.
Series [15] can be described thus: AUC of aliskiren hemifumarate following 8 day once-daily dosing of SPP100B oral solution at 160 mg level studied on day 8 in men. It is filed as ADME, organism-based. The settings on record: male, human, plasma.
Series [16] can be described thus: Effect of 2 week oral dosing of aliskiren hemifumarate at 10 mg.Kg-1 level on hematological parameter values in female Callithrix jacchus. It is filed as toxicity, organism-based, Plasma. The settings on record: marmoset, in vivo, 336 h.
Series [17] in a line: Effect of 2 week oral dosing of aliskiren hemifumarate at 100 mg.Kg-1 level on hematological parameter values in female Callithrix jacchus. The settings on record: marmoset, in vivo, 336 h. Type of series: toxicity, organism-based, Plasma.
The nature of series [18]: Effect of 2 week oral dosing of aliskiren hemifumarate at 100 mg.Kg-1 level on plasma magnesium level in female Callithrix jacchus. Type of series: toxicity, organism-based. Particulars: marmoset, 336 h.
Series [19] is described as follows: Cmax of aliskiren hemifumarate following 2 week oral dosing of aliskiren hemifumarate at 50 mg.Kg-1 level studied on day 1 in male Callithrix jacchus. Type of series: ADME, organism-based. The settings on record: marmoset, plasma.
The nature of series [20]: Cmax of aliskiren hemifumarate following 2 week oral dosing of aliskiren hemifumarate at 50 mg.Kg-1 level studied on day 14 in male Callithrix jacchus. Type of series: ADME, organism-based. Particulars: marmoset, plasma.
A short description of series [21]: Cmaxspec of aliskiren hemifumarate following 2 week oral dosing of aliskiren hemifumarate at 100 mg.Kg-1 level studied on day 1 in female Callithrix jacchus. The settings on record: marmoset, in vivo, 336 h. Type of series: ADME, organism-based, Plasma.
Series [22] can be described thus: Bioavailability (0-96h) of unlabeled aliskiren hemifumarate following oral administration of aliskiren hemifumarate at 100 mg.Kg-1 level in rat. Type of series: ADME, organism-based. The settings on record: Albino HAN:WIST, plasma.
Series [23] can be described thus: Tmax of aliskiren hemifumarate following 4 week oral dietary dosing of aliskiren hemifumarate at 2000 mg.Kg-1 level in male mouse. Type of series: ADME, organism-based. The settings on record: CB6F1-TGrasH2, mouse, in vivo.
Series [24] in a line: Cmax of aliskiren hemifumarate following 4 week oral dietary dosing of aliskiren hemifumarate at 2000 mg.Kg-1 level in male mouse. Type of series: ADME, organism-based. The settings on record: CB6F1-TGrasH2, mouse, in vivo.
Series [25] can be described thus: Cmax of aliskiren hemifumarate following 4 week oral dietary dosing of aliskiren hemifumarate at 1500 mg.Kg-1 level in female mouse. It is filed as ADME, organism-based. The settings on record: CB6F1-TGrasH2, mouse, in vivo.
Series [26] can be described thus: AUC (0-24h) of aliskiren hemifumarate following 4 week oral dietary dosing of aliskiren hemifumarate at 500 mg.Kg-1 level in female mouse. Type of series: ADME, organism-based. The settings on record: CB6F1-TGrasH2, mouse, plasma.
Series [27] in a line: Cmaxspec of aliskiren hemifumarate following 2 week oral dosing of aliskiren hemifumarate at 100 mg.Kg-1 level studied on day 14 in male Callithrix jacchus. Type of series: ADME, organism-based, Plasma. Particulars: marmoset, in vivo, 336 h.
Series [28] in a line: Cmaxspec of aliskiren hemifumarate following 2 week oral dosing of aliskiren hemifumarate at 10 mg.Kg-1 level studied on day 14 in female Callithrix jacchus. Type of series: ADME, organism-based, Plasma. Particulars: marmoset, in vivo, 336 h.
Series [29] can be described thus: Tmax of aliskiren hemifumarate following 2 week oral dosing of aliskiren hemifumarate at 100 mg.Kg-1 level studied on day 14 in male Callithrix jacchus. Type of series: ADME, organism-based. Particulars: marmoset, plasma.
Series [30] is described as follows: AUCspec of aliskiren hemifumarate following 2 week oral dosing of aliskiren hemifumarate at 50 mg.Kg-1 level studied on day 1 in male Callithrix jacchus. It is filed as ADME, organism-based, Plasma. The settings on record: marmoset, in vivo, 336 h.
The nature of series [31]: Tmax (0-168h) of unlabeled aliskiren hemifumarate following single intravenous administration of aliskiren hemifumarate at 1 mg.Kg-1 level in marmoset. The settings on record: plasma. Type of series: ADME, organism-based, Callithrix jacchus.
Series [32] can be described thus: Cmax (0-168h) of unlabeled aliskiren hemifumarate following single intravenous administration of aliskiren hemifumarate at 1 mg.Kg-1 level in marmoset. Type of series: ADME, organism-based, Callithrix jacchus. Particulars: plasma.

Sequence of Cytochrome P450 3A4 (P08684 whole entry): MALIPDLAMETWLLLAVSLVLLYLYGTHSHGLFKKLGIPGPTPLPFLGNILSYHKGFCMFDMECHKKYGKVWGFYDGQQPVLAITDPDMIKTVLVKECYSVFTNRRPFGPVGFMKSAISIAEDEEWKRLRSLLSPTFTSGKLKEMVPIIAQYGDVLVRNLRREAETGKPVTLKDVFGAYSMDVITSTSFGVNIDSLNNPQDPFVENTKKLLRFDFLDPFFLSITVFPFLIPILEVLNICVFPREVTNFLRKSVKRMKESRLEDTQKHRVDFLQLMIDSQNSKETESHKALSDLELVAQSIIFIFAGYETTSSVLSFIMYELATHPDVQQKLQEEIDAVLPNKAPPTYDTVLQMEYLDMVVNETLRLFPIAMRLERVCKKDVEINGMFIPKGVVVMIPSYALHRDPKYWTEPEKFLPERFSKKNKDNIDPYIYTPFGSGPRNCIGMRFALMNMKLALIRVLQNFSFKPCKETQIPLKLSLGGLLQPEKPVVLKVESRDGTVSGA
Sequence of CYP3A4 (P08684 whole entry): as above
Sequence of CYP2D6 (P10635 whole entry): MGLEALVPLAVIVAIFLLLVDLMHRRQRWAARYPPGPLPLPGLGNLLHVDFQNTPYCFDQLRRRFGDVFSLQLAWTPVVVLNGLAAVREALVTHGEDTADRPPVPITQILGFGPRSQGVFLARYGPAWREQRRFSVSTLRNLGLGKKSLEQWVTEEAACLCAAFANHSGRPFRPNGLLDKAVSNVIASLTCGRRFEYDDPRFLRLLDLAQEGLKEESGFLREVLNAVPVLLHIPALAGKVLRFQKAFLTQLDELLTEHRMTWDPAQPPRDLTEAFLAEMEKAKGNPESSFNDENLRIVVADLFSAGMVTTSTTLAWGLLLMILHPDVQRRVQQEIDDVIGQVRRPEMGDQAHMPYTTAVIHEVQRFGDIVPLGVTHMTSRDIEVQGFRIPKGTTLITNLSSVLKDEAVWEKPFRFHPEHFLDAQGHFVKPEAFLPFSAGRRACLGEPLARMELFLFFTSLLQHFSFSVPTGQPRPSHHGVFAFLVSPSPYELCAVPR

One may read the inhibition as the share of the control response that was lost under treatment. High values mean strong suppression, low ones little suppression. In [1], `COCCCOc1cc(C[C@@H](C[C@H](N)[C@@H](O)C[C@H](C(=O)NCC(C)(C)C(N)=O)C(C)C)C(C)C)ccc1OC` registered an inhibition at 200 uM of 37%. The compound further yielded an inhibition at 200 µM in [2] of 11%. Besides, the Compound recovery in [3] is greater than 40%.

A word on the Tmax: it is the time at which the peak concentration occurs. By AUC is commonly meant concentration integrated over time. For the compound `COCCCOc1cc(C[C@@H](C[C@H](N)[C@@H](O)C[C@H](C(=O)NCC([14CH3])([14CH3])C(N)=O)C(C)C)C(C)C)ccc1OC.O=C(O)/C=C/C(=O)O`, the Radiolabel recovery in [4] was 97.5%; in series [7], 28.9%; in series [8], 0.04%; in [9], 0.36%; in series [10], “OUTCOME = Detected”. Also, the Activity in [5] and in series [13] was 99.6% each time. Besides, in [6], the CL is 4.9 µL·min/nmol. Moreover, in series [11], the Tmax was 4.98 min. The AUC in series [12] came to 4.84 µM·h.

The Cmax is the peak of the concentration-time curve. One may read the bioavailability as dose-corrected exposure relative to a reference, in per cent. Read a high bioavailability as much systemic uptake. For orientation: AUC(0-t) means the area under the concentration-time curve up to a stated or last time point. Lower therefore signals less exposure. With `COCCCOc1cc(C[C@@H](C[C@H](N)[C@@H](O)C[C@H](C(=O)NCC(C)(C)C(N)=O)C(C)C)C(C)C)ccc1OC.COCCCOc1cc(C[C@@H](C[C@H](N)[C@@H](O)C[C@H](C(=O)NCC(C)(C)C(N)=O)C(C)C)C(C)C)ccc1OC.O=C(O)/C=C/C(=O)O` [ALISKIREN FUMARATE], the Tmax in [14] was 2.1 h; in series [23], 1 h; in series [29], 2 h; in series [31] it was 4.98 min. The compound further returned an exposure (AUC) at 192 h in series [15] of 0.363 µg·h/mL. Moreover, the Change in hematology result in [16] and in [17] was “OUTCOME = Hematological parameter values did not differ from control values. No animals died during the study” in each case. Also, the “Plasma magnesium_CHANGE_BY” value in series [18] is on record as 130%. Further, the Cmax is 6.29 µg/mL in [19]; 12.3 µg/mL in series [20]; 0.439 µg/mL in series [24]; 1.02 µg/mL in [25]; 14.2 µM in series [32]. The values for the Cmax normalised in series [21], in series [27] and in [28] were 0.079 (ug/ml)/(mg/kg), 0.097 (ug/ml)/(mg/kg) and 0.673 (ug/ml)/(mg/kg), respectively. In series [22], the bioavailability was 2.4%. Also, the exposure AUC(0-t) at 24 h in [26] stood at 0.857 µg·h/mL. In addition, the AUC normalised in series [30] is recorded as 1.16 ((ug.h.ml-1)/(mg/kg).
